Data on twelve compounds can be found in US10519152B2, “Compounds and their use in treating cancer” (AstraZeneca AB, priority 2017, dated 2019).

Each structure is given as a SMILES string.

This experiment concerns the target T1, Estrogen Receptor (ERα) in MCF-7 human ductal carcinoma breast cell line (Homo sapiens, UniProt P03372).
T1 construct: endogenous in cells; host or cells: MCF-7
T1 sequence (P03372 1-595): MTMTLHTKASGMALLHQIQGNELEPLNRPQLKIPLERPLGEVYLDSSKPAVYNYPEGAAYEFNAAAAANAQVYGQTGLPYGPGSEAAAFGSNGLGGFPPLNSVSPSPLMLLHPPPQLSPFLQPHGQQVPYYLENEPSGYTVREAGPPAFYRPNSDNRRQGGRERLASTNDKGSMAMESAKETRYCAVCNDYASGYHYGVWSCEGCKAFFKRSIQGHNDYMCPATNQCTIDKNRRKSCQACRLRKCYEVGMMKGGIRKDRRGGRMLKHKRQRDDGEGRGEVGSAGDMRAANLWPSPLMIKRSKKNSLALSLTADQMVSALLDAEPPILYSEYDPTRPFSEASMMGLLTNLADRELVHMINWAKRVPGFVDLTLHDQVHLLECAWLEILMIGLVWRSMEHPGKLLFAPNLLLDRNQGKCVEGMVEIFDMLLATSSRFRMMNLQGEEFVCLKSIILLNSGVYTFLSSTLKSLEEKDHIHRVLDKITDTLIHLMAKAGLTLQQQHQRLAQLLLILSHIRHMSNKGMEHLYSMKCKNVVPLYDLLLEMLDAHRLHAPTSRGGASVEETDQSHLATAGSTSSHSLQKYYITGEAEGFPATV
Briefly: MCF-7 ER degradation assay (cell based immuno-fluorescence). As to conditions: MCF-7 cells; for ER degradation ≥ 90% at 0.3 μM: ER degradation by fulvestrant at 0.3 μM is defined as 100%; for DC50: 18-22 hours incubation, 50% reduction of ERα expression, single experiment or average of two or more, read-out: MCF-7 ER degradation IC50. In a few lines:
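MCF-7 human ductal carcinoma breast cells were seeded at 3.75×10^4 cells per mL (40 μL per well) in 384 well plates with phenol red free DMEM containing 2 mM L-Glutamine and 5% (v/v) Charcoal/Dextran treated foetal calf serum. After overnight culture, compounds were acoustically dispensed, incubated 18-22 hours, then cells were formaldehyde-fixed and immunostained for ERα.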

For `Cc1ncsc1-c1ccc(CNC(=O)[C@@H]2C[C@@H](O)CN2C(=O)[C@@H](NC(=O)COCCCCCNCCOc2cc(F)c([C@@H]3c4[nH]c5ccccc5c4C[C@@H](C)N3CC(C)(C)F)c(F)c2)C(C)(C)C)cc1` [Example 48, (2S,4R)-1-((S)-2-(2-((5-((2-(3,5-difluoro-4-((1R,3R)-2-(2-fluoro-2-methylpropyl)-3-methyl-2,3,4,9-tetrahydro-1H-pyrido[3,4-b]indol-1-yl)phenoxy)ethyl)amino)pentyl)oxy)acetamido)-3,3-dimethylbutanoyl)-4-hydroxy-N-(4-(4-methylthiazol-5-yl)benzyl)pyrrolidine-2-carboxamide], the “ER degradation ≥ 90% at 0.3 μM” value is “•” and the DC50 turned out to be 1800 pM.

On to `Cc1ncsc1-c1ccc(CNC(=O)[C@@H]2C[C@@H](O)CN2C(=O)[C@@H](NC(=O)COCCOCCCCOc2cc(F)c([C@@H]3c4[nH]c5ccccc5c4C[C@@H](C)N3CC(C)(C)F)c(F)c2)C(C)(C)C)cc1` [Example 128, (2S,4R)-1-((S)-2-(2-(2-(4-(3,5-Difluoro-4-((1R,3R)-2-(2-fluoro-2-methylpropyl)-3-methyl-2,3,4,9-tetrahydro-1H-pyrido[3,4-b]indol-1-yl)phenoxy)butoxy)ethoxy)acetamido)-3,3-dimethylbutanoyl)-4-hydroxy-N-(4-(4-methylthiazol-5-yl)benzyl)pyrrolidine-2-carboxamide], for which the “ER degradation ≥ 90% at 0.3 μM” value is recorded as “••” and the DC50 stood at 600 pM.

For the compound `Cc1ncsc1-c1ccc(CNC(=O)[C@@H]2C[C@@H](O)CN2C(=O)[C@@H](NC(=O)COCc2cccc(COc3cc(F)c([C@@H]4c5[nH]c6ccccc6c5C[C@@H](C)N4CC(C)(C)F)c(F)c3)n2)C(C)(C)C)cc1` [Example 132, (2S,4R)-1-((S)-2-(2-((6-((3,5-Difluoro-4-((1R,3R)-2-(2-fluoro-2-methylpropyl)-3-methyl-2,3,4,9-tetrahydro-1H-pyrido[3,4-b]indol-1-yl)phenoxy)methyl)pyridin-2-yl)methoxy)acetamido)-3,3-dimethylbutanoyl)-4-hydroxy-N-(4-(4-methylthiazol-5-yl)benzyl)pyrrolidine-2-carboxamide], the “ER degradation ≥ 90% at 0.3 μM” value is “•” and the DC50 was determined as 600 pM.

On to `Cc1ncsc1-c1ccc(CNC(=O)[C@@H]2C[C@@H](O)CN2C(=O)[C@@H](NC(=O)COCC(F)(F)COCCCOc2cc(F)c([C@@H]3c4[nH]c5ccccc5c4C[C@@H](C)N3CC(C)(C)F)c(F)c2)C(C)(C)C)cc1` [Example 125, (2S,4R)-1-((S)-2-(2-(3-(3-(3,5-Difluoro-4-((1R,3R)-2-(2-fluoro-2-methylpropyl)-3-methyl-2,3,4,9-tetrahydro-1H-pyrido[3,4-b]indol-1-yl)phenoxy)propoxy)-2,2-difluoropropoxy)acetamido)-3,3-dimethylbutanoyl)-4-hydroxy-N-(4-(4-methylthiazol-5-yl)benzyl)pyrrolidine-2-carboxamide], for which the “ER degradation ≥ 90% at 0.3 μM” value is “••” and the DC50 was 700 pM.

On to `Cc1ncsc1-c1ccc(CNC(=O)[C@@H]2C[C@@H](O)CN2C(=O)[C@@H](NC(=O)COCc2ccnc(COc3cc(F)c([C@@H]4c5[nH]c6ccccc6c5C[C@@H](C)N4CC(C)(C)F)c(F)c3)c2)C(C)(C)C)cc1` [Example 134, (2S,4R)-1-((S)-2-(2-((2-((3,5-Difluoro-4-((1R,3R)-2-(2-fluoro-2-methylpropyl)-3-methyl-2,3,4,9-tetrahydro-1H-pyrido[3,4-b]indol-1-yl)phenoxy)methyl)pyridin-4-yl)methoxy)acetamido)-3,3-dimethylbutanoyl)-4-hydroxy-N-(4-(4-methylthiazol-5-yl)benzyl)pyrrolidine-2-carboxamide], for which the “ER degradation ≥ 90% at 0.3 μM” value was “•” and the DC50 was 500 pM.

Take `Cc1ncsc1-c1ccc(CNC(=O)[C@@H]2C[C@@H](O)CN2C(=O)[C@@H](NC(=O)COCCCCC(=O)NCCOc2cc(F)c([C@@H]3c4[nH]c5ccccc5c4C[C@@H](C)N3CC(C)(C)F)c(F)c2)C(C)(C)C)cc1` [Example 142, (2S,4R)-1-((S)-2-(2-((5-((2-(3,5-Difluoro-4-((1R,3R)-2-(2-fluoro-2-methylpropyl)-3-methyl-2,3,4,9-tetrahydro-1H-pyrido[3,4-b]indol-1-yl)phenoxy)ethyl)amino)-5-oxopentyl)oxy)acetamido)-3,3-dimethylbutanoyl)-4-hydroxy-N-(4-(4-methylthiazol-5-yl)benzyl)pyrrolidine-2-carboxamide]: the “ER degradation ≥ 90% at 0.3 μM” value was “••” and the DC50 was determined as 200 pM.

As to `Cc1ncsc1-c1ccc(CNC(=O)[C@@H]2C[C@@H](O)CN2C(=O)[C@@H](NC(=O)COCCOCCCCCOc2cc(F)c([C@@H]3c4[nH]c5ccccc5c4C[C@@H](C)N3CC(F)F)c(F)c2)C(C)(C)C)cc1` [Example 167, (2S,4R)-1-((S)-2-(2-(2-((5-(4-((1R,3R)-2-(2,2-Difluoroethyl)-3-methyl-2,3,4,9-tetrahydro-1H-pyrido[3,4-b]indol-1-yl)-3,5-difluorophenoxy)pentyl)oxy)ethoxy)acetamido)-3,3-dimethylbutanoyl)-4-hydroxy-N-(4-(4-methylthiazol-5-yl)benzyl)pyrrolidine-2-carboxamide], the “ER degradation ≥ 90% at 0.3 μM” value is given as “••” and the DC50 stood at 600 pM.

As to `Cc1ncsc1-c1ccc(CNC(=O)[C@@H]2C[C@@H](O)CN2C(=O)[C@@H](NC(=O)COCCCCCCCCOc2ccc([C@@H]3c4[nH]c5ccccc5c4C[C@@H](C)N3CC(F)F)nc2)C(C)(C)C)cc1` [Example 13, (2S,4R)-1-((S)-2-(2-((8-((6-((1S,3R)-2-(2,2-Difluoroethyl)-3-methyl-2,3,4,9-tetrahydro-1H-pyrido[3,4-b]indol-1-yl)pyridin-3-yl)oxy)octyl)oxy)acetamido)-3,3-dimethylbutanoyl)-4-hydroxy-N-(4-(4-methylthiazol-5-yl)benzyl)pyrrolidine-2-carboxamide], the “ER degradation ≥ 90% at 0.3 μM” value is recorded as “•” and the DC50 was 3700 pM.

As to `Cc1ncsc1-c1ccc(CNC(=O)[C@@H]2C[C@@H](O)CN2C(=O)[C@@H](NC(=O)COCCOCCOCCOc2cc(F)c([C@@H]3c4[nH]c5ccccc5c4C[C@@H](C)N3C[C@H](C)CO)c(F)c2)C(C)(C)C)cc1` [Example 101, (2S,4R)-1-((S)-2-(tert-butyl)-14-(3,5-difluoro-4-((1R,3R)-2-((S)-3-hydroxy-2-methylpropyl)-3-methyl-2,3,4,9-tetrahydro-1H-pyrido[3,4-b]indol-1-yl)phenoxy)-4-oxo-6,9,12-trioxa-3-azatetradecanoyl)-4-hydroxy-N-(4-(4-methylthiazol-5-yl)benzyl)pyrrolidine-2-carboxamide], the “ER degradation ≥ 90% at 0.3 μM” value is given as “•” and the DC50 worked out at 1800 pM.

On to `Cc1ncsc1-c1ccc(CNC(=O)[C@@H]2C[C@@H](O)CN2C(=O)[C@@H](NC(=O)CCOCCCCCCCOc2cc(F)c([C@@H]3c4[nH]c5ccccc5c4C[C@@H](C)N3CC(C)(C)F)c(F)c2)C(C)(C)C)cc1` [Example 115, (2S,4R)-1-((S)-2-(3-((7-(3,5-difluoro-4-((1R,3R)-2-(2-fluoro-2-methylpropyl)-3-methyl-2,3,4,9-tetrahydro-1H-pyrido[3,4-b]indol-1-yl)phenoxy)heptyl)oxy)propanamido)-3,3-dimethylbutanoyl)-4-hydroxy-N-(4-(4-methylthiazol-5-yl)benzyl)pyrrolidine-2-carboxamide], for which the “ER degradation ≥ 90% at 0.3 μM” value was “••” and the DC50 is 3400 pM.

`Cc1ncsc1-c1ccc(CNC(=O)[C@@H]2C[C@@H](O)CN2C(=O)[C@@H](NC(=O)COCCCOCCCCCOc2cc(F)c([C@@H]3c4[nH]c5ccccc5c4C[C@@H](C)N3CC(C)(C)F)c(F)c2)C(C)(C)C)cc1` [Example 138, (2S,4R)-1-((S)-2-(2-(3-((5-(3,5-Difluoro-4-((R,3R)-2-(2-fluoro-2-methylpropyl)-3-methyl-2,3,4,9-tetrahydro-1H-pyrido[3,4-b]indol-1-yl)phenoxy)pentyl)oxy)propoxy)acetamido)-3,3-dimethylbutanoyl)-4-hydroxy-N-(4-(4-methylthiazol-5-yl)benzyl)pyrrolidine-2-carboxamide]: the “ER degradation ≥ 90% at 0.3 μM” value is given as “••” and the DC50 stood at 1100 pM.

`Cc1ncsc1-c1ccc([C@H](C)NC(=O)[C@@H]2C[C@@H](O)CN2C(=O)[C@@H](NC(=O)COCCCCOCCCOc2cc(F)c([C@@H]3c4[nH]c5ccccc5c4C[C@@H](C)N3CC(C)(C)F)c(F)c2)C(C)(C)C)cc1` [Example 154, (2S,4R)-1-((S)-2-(2-(4-(3-(3,5-Difluoro-4-((1R,3R)-2-(2-fluoro-2-methylpropyl)-3-methyl-2,3,4,9-tetrahydro-1H-pyrido[3,4-b]indol-1-yl)phenoxy)propoxy)butoxy)acetamido)-3,3-dimethylbutanoyl)-4-hydroxy-N—((S)-1-(4-(4-methylthiazol-5-yl)phenyl)ethyl)pyrrolidine-2-carboxamide]: the “ER degradation ≥ 90% at 0.3 μM” value was “•” and the DC50 came to 700 pM.
